Read-outs that look alike come from different tables or passages of the source.
Key:
human Nav1.7 = human Nav1.7 (Homo sapiens (Human), UniProt Q15858); test: FLIPR or FLIPR TETRA sodium dye assay with KCl and test article pre-incubation; type: cell-based; conditions: read-out: Nav1.7 IC50 (μM) ± SEM
[1] = tested on: neuropathic hyperalgesia in rats; test: Seltzer model (partial sciatic nerve ligation) of neuropathic pain, paw withdrawal threshold; type: in vivo; conditions: 30 mg/kg p.o., rat; for Time post-dose (h) with statistically significant increase in paw withdrawal threshold: Seltzer model, assessed 1, 3 and 5 h after administration
Experimental: Test Animals: Each experiment uses rats weighing between 200-260 g at the start of the experiment. The rats are group-housed and have free access to food and water at all times, except prior to oral administration of a test compound when food is removed for 16 hours before dosing. A control group acts as a comparison to rats treated with a compound of Formulae I-XXXIII. The control group is administered the carrier as used for the test compound. The volume of carrier administered to the control group is the same as the volume of carrier and test compound administered to the test group.
In the Seltzer model, the partial sciatic nerve ligation model of neuropathic pain was used to produce neuropathic hyperalgesia in rats (Seltzer et al., Pain 43:205-218 (1990)). Partial ligation of the left sciatic nerve was performed under inhalation anesthesia, e.g., isoflurane/O2. Following induction of anesthesia, the left thigh of the rat was shaved and the sciatic nerve exposed at high thigh level through a small incision and was carefully cleared of surrounding connective tissues at a site near the trocanther just distal to the point at which the posterior biceps semitendinosus nerve branches off of the common sciatic nerve. A 7-0 silk suture was inserted into the nerve, e.g., with a ⅜ curved, reversed-cutting mini-needle, and tightly ligated so that the dorsal ⅓ to ½ of the nerve thickness was held within the ligature. The wound was closed, e.g., with a single muscle suture (4-0 nylon (Vicryl)) and vetbond tissue glue. Following surgery, the wound area was dusted with antibiotic powder. Sham-treated rats undergo an identical surgical procedure except that the sciatic nerve is not manipulated. Following surgery, animals were weighed and placed on a warm pad until they recovered from anesthesia. Animals were then returned to their home cages until behavioral testing began. The animals were assessed for response to noxious mechanical stimuli by determining PWT, as described below, prior to surgery (baseline), then immediately prior to and 1, 3, and 5 hours after drug administration for rear paw of the animal. Percentage reversal of neuropathic hyperalgesia is defined as: […]
The following compounds were tested and produced a statistically significant increase in paw withdrawal threshold when administered at 30 mg/kg p.o. in the Seltzer model of neuropathic pain at the time points indicated:
Mechanical Hyperalgesia: Sensitivity to noxious mechanical stimuli can be measured in animals using the paw pressure test to assess mechanical hyperalgesia. In rats, hind paw withdrawal thresholds (“PWT”), measured in grams, in response to a noxious mechanical stimulus are determined using an analgesymeter (Model 7200, commercially available from Ugo Basile of Italy), as described in Stein (Biochemistry & Behavior 31: 451-455 (1988)). The rat's paw is placed on a small platform, and weight is applied in a graded manner up to a maximum of 250 grams. The endpoint is taken as the weight at which the paw is completely withdrawn. PWT is determined once for each rat at each time point. PWT can be measured only in the injured paw, or in both the injured and non-injured paw. In one non-limiting embodiment, mechanical hyperalgesia associated with nerve injury induced pain (neuropathic pain) can be assessed in rats. Rats are tested prior to surgery to determine a baseline, or normal, PWT. Rats are tested again 2 to 3 weeks post-surgery, prior to, and at different times after (e.g. 1, 3, 5 and 24 hr) drug administration.

[2] = recombinant human Nav1.7 in HEK293 cells, CoroNa Green sodium dye, veratridine + scorpion venom

Sequence of human Nav1.7 (Q15858 other isoform, or with tags, fused parts or gaps): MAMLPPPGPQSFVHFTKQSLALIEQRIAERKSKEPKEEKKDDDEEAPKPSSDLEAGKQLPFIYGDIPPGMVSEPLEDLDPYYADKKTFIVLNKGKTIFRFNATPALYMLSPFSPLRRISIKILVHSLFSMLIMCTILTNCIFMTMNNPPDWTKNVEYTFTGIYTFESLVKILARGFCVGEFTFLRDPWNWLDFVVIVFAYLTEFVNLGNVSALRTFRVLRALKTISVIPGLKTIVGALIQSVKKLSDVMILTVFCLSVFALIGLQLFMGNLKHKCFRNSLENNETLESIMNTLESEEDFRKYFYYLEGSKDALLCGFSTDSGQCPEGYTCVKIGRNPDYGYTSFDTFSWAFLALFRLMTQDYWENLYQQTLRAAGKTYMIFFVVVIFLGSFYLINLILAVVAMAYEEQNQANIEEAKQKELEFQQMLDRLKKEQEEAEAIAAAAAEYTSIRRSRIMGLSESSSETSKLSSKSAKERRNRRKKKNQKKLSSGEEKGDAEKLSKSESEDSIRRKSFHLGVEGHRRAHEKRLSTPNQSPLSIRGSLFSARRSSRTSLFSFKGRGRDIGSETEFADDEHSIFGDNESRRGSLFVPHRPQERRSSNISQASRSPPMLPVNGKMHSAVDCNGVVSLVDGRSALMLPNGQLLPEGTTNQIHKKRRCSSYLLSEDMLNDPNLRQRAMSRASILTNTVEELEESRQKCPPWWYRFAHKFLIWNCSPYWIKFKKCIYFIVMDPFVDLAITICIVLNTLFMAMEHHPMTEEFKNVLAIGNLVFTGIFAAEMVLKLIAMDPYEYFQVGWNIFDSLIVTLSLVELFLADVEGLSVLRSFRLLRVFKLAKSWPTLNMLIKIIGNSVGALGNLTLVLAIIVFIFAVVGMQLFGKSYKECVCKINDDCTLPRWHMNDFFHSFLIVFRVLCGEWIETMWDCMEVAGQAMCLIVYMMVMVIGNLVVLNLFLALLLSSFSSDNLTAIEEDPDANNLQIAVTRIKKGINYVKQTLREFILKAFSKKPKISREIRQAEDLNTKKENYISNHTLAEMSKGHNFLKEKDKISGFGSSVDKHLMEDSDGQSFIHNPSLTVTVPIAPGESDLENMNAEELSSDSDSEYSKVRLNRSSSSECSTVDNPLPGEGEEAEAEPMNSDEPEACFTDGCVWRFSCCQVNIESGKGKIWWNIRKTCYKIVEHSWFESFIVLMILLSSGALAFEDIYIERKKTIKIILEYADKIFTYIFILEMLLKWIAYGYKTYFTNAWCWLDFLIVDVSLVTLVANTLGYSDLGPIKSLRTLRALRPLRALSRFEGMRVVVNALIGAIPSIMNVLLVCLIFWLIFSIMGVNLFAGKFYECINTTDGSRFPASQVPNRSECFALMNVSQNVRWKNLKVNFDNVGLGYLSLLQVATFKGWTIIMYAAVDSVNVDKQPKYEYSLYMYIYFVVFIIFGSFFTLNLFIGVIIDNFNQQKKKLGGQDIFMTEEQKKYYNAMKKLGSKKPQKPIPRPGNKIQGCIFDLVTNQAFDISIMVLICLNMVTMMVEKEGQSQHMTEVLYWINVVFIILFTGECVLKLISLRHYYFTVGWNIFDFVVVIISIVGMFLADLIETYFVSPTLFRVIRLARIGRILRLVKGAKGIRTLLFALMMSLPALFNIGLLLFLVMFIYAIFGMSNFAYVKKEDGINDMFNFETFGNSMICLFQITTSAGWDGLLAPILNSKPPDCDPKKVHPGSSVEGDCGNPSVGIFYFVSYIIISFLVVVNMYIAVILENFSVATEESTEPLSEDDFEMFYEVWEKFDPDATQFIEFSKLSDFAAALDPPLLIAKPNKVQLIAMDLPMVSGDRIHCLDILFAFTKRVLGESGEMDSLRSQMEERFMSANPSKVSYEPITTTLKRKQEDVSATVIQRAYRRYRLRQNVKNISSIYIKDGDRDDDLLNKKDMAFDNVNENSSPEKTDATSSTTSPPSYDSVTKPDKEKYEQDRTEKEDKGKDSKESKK

Row | SMILES | IC50 (human Nav1.7) [µM] | Time post-dose (h) with statistically significant increase in paw withdrawal threshold [1] [h] | IC50 (human Nav1.7; [2]) [µM] | increase in paw withdrawal threshold in the Seltzer model ([1]; vehicle 10% Tween 80 in water)
1 | N#Cc1cc(Oc2ccc(-c3cccc([C@H](O)CO)n3)cc2)ccc1C(F)(F)F [compound 18, (S)-5-(4-(6-(1,2-dihydroxyethyl)pyridin-2-yl)phenoxy)-2-(trifluoromethyl) benzonitrile] | 2.8 ± 0.12 | 1 | – | –
2 | NC(=O)c1cc([C@H](O)CO)cc(-c2ccc(Oc3ccc(C(F)(F)F)cc3)cc2)n1 [compound 30, (S)-4-(1,2-dihydroxyethyl)-6-(4-(4-(trifluoromethyl)phenoxy)phenyl) picolinamide] | – | 1 | 0.24 ± 0.07 | –
3 | N#Cc1cc(C(F)(F)F)ccc1Oc1ccc(-c2cccc(CNCCN3CCNC3=O)n2)cc1 [compound 63, 2-(4-(6-(((2-(2-oxoimidazolidin-1-yl)ethyl)amino)methyl)pyridin-2-yl)phenoxy)-5-(trifluoromethyl) benzonitrile] | – | – | 0.09 ± 0.03 | did not produce a statistically significant increase
4 | O=C1NCCN1CCNCc1cccc(-c2ccc(Oc3ccc(C(F)(F)F)cn3)cc2)n1 [compound 68, 1-(2-(((6-(4-((5-(trifluoromethyl)pyridin-2-yl)oxy)phenyl)pyridin-2-yl)methyl)amino)ethyl) imidazolidin-2-one] | – | 1 | 0.18 ± 0.09 | –
